Experiment [1] concerns B16F10 (melanoma). Put plainly: B16F10 syngeneic mouse melanoma model, first study, tumor growth. In kind it is in vivo. Conditions: single dose low dose gemcitabine 15 mg/kg and/or anti-CCR8 antibody Q3D 1 mg/kg, FIG. 3. Here is the method:
(§1) The ability of an anti-CCR8 antibody to augment tumor-specific effector T cell responses when paired with low-dose chemotherapy with or without an anti-PD-1 mAb was tested in vivo in different mouse syngeneic models, including 4T1 (breast cancer), Pan02 (pancreatic cancer), B16F10 (melanoma), LLC (lung cancer). 4T1 and Pan02 models are commonly understood to represent solid tumor models with strong immunosuppressive components. B16F10 and LLC are commonly viewed as cold tumor models.
(§2) The anti-CCR8 antibody used for the studies described herein is a mouse IgG2a isotype, and as described, e.g., by Campbell, J. R., et al. (2021). “Fc-Optimized Anti-CCR8 Antibody Depletes Regulatory T Cells in Human Tumor Models.” Cancer Res 81(11): 2983-2994. Isotype Control is a mouse IgG2a (BioXcell). Anti-PD-1 antibody is a mouse IgG1 antibody with D265A mutation.
A first study using the B16F10 model tested the relative antitumor activities of anti-CCR8 antibody and gemcitabine administrations as single agents and in combination. Following inoculation, mice were randomized and grouped (n=10 animals per group) when tumors reached 80-120 mm^3 and administered a single dose of low dose gemcitabine at 15 mg/kg (approximately 50% of most efficacious dose) and/or anti-CCR8 antibody Q3D at 1 mg/kg. A control group received an isotype control antibody. […] Tumors were collected at Day 5 post-dose. […]

Experiment [2] deals with tumor infiltrating lymphocytes from B16F10 tumors. Briefly: B16F10 model, flow cytometry of tumor infiltrating lymphocytes (Treg and CD8 frequency). It is filed as in vivo, mouse. To be noted: B16F10 tumors collected at Day 5 post-dose, FIG. 4B. From the text:
FIG. 4A and FIG. 4B show bar charts illustrating tumor infiltrating lymphocytes from a syngeneic mouse melanoma model (B16F10). Mice were each administered with a single dose of a control antibody, gemcitabine (“low dose SOC chemo”) and/or an anti-CCR8 antibody, and frequencies of regulatory T-cells (Tregs; […]) or effector T-cells ([…]) were quantified. T test results are shown, wherein **** is p<0.0001, *** p<0.001, ** is p<0.01 and * is p<0.1.
A first study using the B16F10 model tested the relative antitumor activities of anti-CCR8 antibody and gemcitabine administrations as single agents and in combination. Following inoculation, mice were randomized and grouped (n=10 animals per group) when tumors reached 80-120 mm^3 and administered a single dose of low dose gemcitabine at 15 mg/kg (approximately 50% of most efficacious dose) and/or anti-CCR8 antibody Q3D at 1 mg/kg. A control group received an isotype control antibody. […] Tumors were collected at Day 5 post-dose. […] Briefly, tumors were dissociated and prepared for flow cytometry staining. Cells were stained as follows: L/D, CD45, CD3, CD4, CD8, CD25, FoxP3. Samples were acquired on flow cytometer and data generated was used to determine Treg frequency (L/D negative, CD45 positive, CD3 positive, CD4 positive, CD25 positive, FoxP3 positive) and CD8 frequency (L/D negative, CD45 positive, CD3 positive, CD8 positive).
A general note: A flow cytometer gives signals particle by particle.

Experiment [3] concerns LLC (lung cancer). Briefly: LLC syngeneic mouse lung model, first study, tumor growth. It is filed as in vivo. Conditions: single dose low dose docetaxel 5 mg/kg and/or anti-CCR8 antibody Q3D 1 mg/kg, FIG. 6. The method, then:
as §1, §2
A first study using the LLC model tested the relative antitumor activities of anti-CCR8 antibody and docetaxel administrations as single agents and in combination. Following inoculation, mice were randomized and grouped (n=8 animals per group) when tumors reached 80-120 mm^3 and administered a single dose of low dose docetaxel at 5 mg/kg (approximately 50% of most efficacious dose) and/or anti-CCR8 antibody Q3D at 1 mg/kg. A control group received an isotype control antibody.

Experiment [4] has as its system LLC (lung cancer). Briefly: LLC syngeneic mouse lung model, second study (single, dual, triple combinations), tumor growth. To be noted: docetaxel 5 mg/kg, anti-CCR8 antibody Q3D 1 mg/kg, anti-PD-1 antibody Q3D 10 mg/kg, FIG. 7, FIG. 8. It is filed as in vivo. The method, then:
as §1, §2
A second study using the LLC model tested the relative antitumor activities of anti-CCR8 antibody, anti-PD-1 antibody, and low dose docetaxel as single agents, dual combinations, and a triple combination. Following inoculation, mice were randomized and grouped (n=10 animals per group) when tumors reached 80-120 mm^3 and administered a single dose of docetaxel at 5 mg/kg, and/or anti-CCR8 antibody Q3D at 1 mg/kg, and/or anti-PD-1 antibody Q3D at 10 mg/kg. A control group received an isotype control antibody. […]

As to `Nc1ccn([C@@H]2O[C@H](CO)[C@@H](O)C2(F)F)c(=O)n1` [gemcitabine], in experiment [1], the tumor growth inhibition entry is reported as “did not result in substantial tumor growth inhibition”. In addition, the “CD8+ T-cell infiltration in the tumors (CD8 frequency)” value in experiment [2] was “significant CD8+ T-cell infiltration”.
In the case of `CC(=O)O[C@@]12CO[C@@H]1C[C@H](O)[C@@]1(C)C(=O)[C@H](O)C3=C(C)[C@@H](OC(=O)[C@H](O)[C@@H](NC(=O)OC(C)(C)C)c4ccccc4)C[C@@](O)([C@@H](OC(=O)c4ccccc4)[C@H]21)C3(C)C` [docetaxel], the figures for the tumor growth inhibition entry in experiment [3] and in experiment [4] were “did not result in substantial tumor growth inhibition” and “Partial tumor growth inhibition”, respectively.

The record behind these values is patent publication US20240165227A1, “ANTICANCER THERAPIES USING ANTI-CCR8 ANTIBODY, CHEMO AND IMMUNOTHERAPY COMBINATIONS” (Gilead Sciences, Inc., priority 2022, published 2024).
